According to ChEMBL document CHEMBL3046034, “Enzyme inhibitors to increase poly-3-hydroxybutyrate production by transgenic tobacco” (2002):
The source made the active and inactive calls. The calls are words filed in the database; no cut-off is given here.

How the values were obtained:
Nicotiana tabacum [1] = experiment: Increase of poly-3-hydroxybutyrate production in rCAB8 transgenic Nicotiana tabacum (tobacco) plastids at 0.1 to 10 uM sprayed on five-leaf stage plant once in a week measured after 2 weeks relative to control; type: functional, organism-based
Nicotiana tabacum [2] = experiment: Increase of poly-3-hydroxybutyrate production in BC3 transgenic Nicotiana tabacum (tobacco) plastids at 1 uM sprayed on five-leaf stage plant once in a week measured after 2 weeks relative to control; type: functional
Nicotiana tabacum [3] = experiment: Increase of poly-3-hydroxybutyrate production in BC3 transgenic Nicotiana tabacum (tobacco) plastids at 10 uM sprayed on five-leaf stage plant once in a week measured after 2 weeks relative to control; type: functional, organism-based
Nicotiana tabacum [4] = experiment: Increase of leaf dry weight in rCAB8 transgenic Nicotiana tabacum (tobacco) at 10 to 250 uM sprayed on five leaf stage plant once in a week measured after 2 weeks; type: functional, organism-based
Nicotiana tabacum [5] = experiment: Increase of poly-3-hydroxybutyrate production in BC3 transgenic Nicotiana tabacum (tobacco) plastids at 10 uM sprayed on five-leaf stage plant once in a week measured after 2 weeks relative to cytosol; type: functional
Nicotiana tabacum [6] = experiment: Increase of poly-3-hydroxybutyrate production in rCAB8 transgenic Nicotiana tabacum (tobacco) at 50 uM sprayed on five-leaf stage plant once in a week measured after 1 week relative to control; type: functional
Nicotiana tabacum [7] = experiment: Increase of poly-3-hydroxybutyrate production in BC3 transgenic Nicotiana tabacum (tobacco) at 10 uM sprayed on five-leaf stage plant once in a week measured after 1 week relative to control; type: functional
Nicotiana tabacum [8] = experiment: Increase of leaf dry weight in BC3 transgenic Nicotiana tabacum (tobacco) sprayed on five-leaf stage plant once in a week measured after 2 weeks; type: functional, organism-based
Nicotiana tabacum [9] = experiment: Increase of PHA synthase level in BC3 transgenic Nicotiana tabacum (tobacco) at 10 uM sprayed on five leaf stage plant once in a week measured after 2 weeks by immunoblot analysis; type: functional, organism-based
Nicotiana tabacum [10] = experiment: Increase of leaf dry weight in BC3 transgenic Nicotiana tabacum (tobacco) at 10 uM sprayed on five leaf stage plant once in a week measured after 1 week; type: functional, organism-based
Nicotiana tabacum [11] = experiment: Increase of PHA synthase level in rCAB8 transgenic Nicotiana tabacum (tobacco) at 50 uM sprayed on five leaf stage plant once in a week measured after 2 weeks by immunoblot analysis; type: functional, organism-based
Nicotiana tabacum [12] = experiment: Increase of poly-3-hydroxybutyrate production in rCAB8 transgenic Nicotiana tabacum (tobacco) at 50 uM sprayed on five-leaf stage plant once in a week measured after 2 weeks relative to control; type: functional
Nicotiana tabacum [13] = experiment: Increase of poly-3-hydroxybutyrate production in BC3 transgenic Nicotiana tabacum (tobacco) at 2 to 50 uM sprayed on five-leaf stage plant once in a week measured after 2 weeks relative to control; type: functional
Nicotiana tabacum [14] = experiment: Increase of poly-3-hydroxybutyrate production in rCAB8 transgenic Nicotiana tabacum (tobacco) plastids at 50 uM sprayed on five-leaf stage plant once in a week measured after 2 weeks relative to cytosol; type: functional
Nicotiana tabacum [15] = experiment: Increase of poly-3-hydroxybutyrate production in BC3 transgenic Nicotiana tabacum (tobacco) at 10 uM sprayed on five leaf stage plant once in a week measured after 2 weeks relative to control; type: functional

| Structure (SMILES) | Activity (Nicotiana tabacum [1]) | Activity (Nicotiana tabacum [2]) | Activity (Nicotiana tabacum [3]) | Activity (Nicotiana tabacum [4]) | fold change (FC) (Nicotiana tabacum [5]) | Activity (Nicotiana tabacum [6]) | Activity (Nicotiana tabacum [7]) | Activity (Nicotiana tabacum [8]) | Activity (Nicotiana tabacum [9]) | Activity (Nicotiana tabacum [10]) | Activity (Nicotiana tabacum [11]) | Activity (Nicotiana tabacum [12]) | Activity (Nicotiana tabacum [13]) | fold change (FC) (Nicotiana tabacum [14]) | Activity (Nicotiana tabacum [15]) |
| --- | --- | --- | --- | --- | --- | --- | --- | --- | --- | --- | --- | --- | --- | --- | --- |
| CC[C@H](C)C(=O)O[C@H]1CCC=C2C=C[C@H](C)[C@H](CC[C@@H]3C[C@@H](O)CC(=O)O3)[C@H]21 [MEVASTATIN] | Active | 192% | inactive | – | – | – | – | – | – | – | – | – | – | – | – |
| CC(Oc1ccc(Oc2cnc3cc(Cl)ccc3n2)cc1)C(=O)O (stereo not given) [QUIZALOFOP] | – | – | – | Active | 2.5 | 120% | 150% | Dose-dependent effect | Active | Active | Active | 150% | 170% | 2.5 | 170% |
